According to patent US12410220B2, “Modulation of mammalian cell lineage by synthetic immodulins” (priority 2021, dated 2025):
Marks after values point to notes of the source that are not given here. Square brackets hold non-standard residues; d marks the D form. Ends that are not written are not given here. Peptide text beside a SMILES is read from it. * marks the point of attachment. Pentanoyl(2-Pr) = CCCC(CCC)C(=O)*; Decanoyl = CCCCCCCCCC(=O)*

Experiments:
[1] = Ferric iron-binding assay of biotinylated immodulin peptides; details: N-terminally biotinylated peptide, 400 ng per well, 60 min room temperature; immX3AVD = 100
Source text: N-terminally biotinylated versions of the peptides listed below were used in ferric iron-binding assays involving either an Alexa488-labeled streptavidin protocol (Binding Assay 1) or FITC-NTA assay (Binding Assay 2). Fluorescence was standardized to binding with immX3AVD control peptide (100) and the average of multiple experiments using both protocols is shown. P values are shown relative to the control immX3AVD peptide (**<0.05). D-amino acid residues are underlined in the sequences and the extension tripeptide of immX peptides is shown in bold font. Binding Assay 1 was done as follows: NTA coated 96-well plates (G-Biosciences, St. Louis, MO) were charged with ferric chloride and contacted with equimolar biotinylated peptide: streptavidin-A488 complex (400 ng peptide per well) for 60 min at room temperature, washed with phosphate-buffered saline (PBS) and read at 525 nm in a fluorescence counter. Binding Assay 2 was done as follows: Streptavidin coated 96-well plates (G-Biosciences, St. Louis, MO) were contacted with 400 ng peptide per well in PBS buffer for 60 minutes at room temperature, washed in PBS, then contacted with FITC-NTA (TRC, Toronto, Canada) complexed with equimolar ferric chloride (10× molar equivalent per well) for 60 min at room temperature, washed with PBS and read at 525 nm in a fluorescence counter.

[2] = system: rat scald-endotoxemia model; assay: Experiment 5B rat scald-endotoxemia model; format: in vivo, Sprague Dawley rats
Protocol: Experiment 5B. This study explores the effect of immX extensions on sV-nephrilin (SEQ ID NO:31) vs V-nephrilin, as well as in a longer peptide also containing the immX extension (Traumatin-3N1A: SEQ ID NO:35) on in vivo efficacy in a rat scald-endotoxemia model. Animals were treated with peptides using a widely used protocol previously described (see, for example, U.S. Pat. No. 10,369,191). Adult Sprague Dawley rats of both sexes (250-300 gm, Charles River Laboratories, Wilmington, MA, USA) were injected with peptide plus equimolar ferric iron once daily by subcutaneous bolus injection, days 1-7; Treatment group sizes were (n=6): group S=sham-treated; group B=burn+vehicle; group V=burn+1 mg/kg V-nephrilin (V); group sV=burn+1 mg/kg sV-nephrilin (immX3N1sV); group T=burn+1 mg/kg Traumatin-3N1A. The first dose was administered after completion of the scald procedure. Injection volume was 400 uL. Control animals received the same volume of vehicle. On Day 8, animals received a single intraperitoneal injection of 2.5 mg/kg lipopolysaccharide (LPS; Sigma Cat #L-2880) and animals were then monitored by oximeter (MouseOx, Starr Life Sciences) for 4 hours, when respiratory distress (breath distension*breaths/min) was assessed relative to baseline. This was followed by sacrifice and tissue collection as in the published protocol, except that bronchoalveolar lavage (BAL) was collected and cells were recovered from BAL by centrifugation. These cells were stained with fluorescently-labeled antibodies for flow cytometry in order to ascertain granulocyte counts, as shown below. Results of the peptide comparison are presented in the table below. *p<0.05 vs “B” control. #p<0.05 vs “V” group.

[3] = system: HFF-1 human fibroblast cell line; assay: Collagen-1 ELISA in HFF-1 dermal fibroblasts; format: cell-based; details: peptide 2 uM, 72 hour incubation
Protocol: Immodulin peptides have potential untility in the field of cosmetics. HFF-1 human fibroblast cell line was obtained from the American Type Culture Collection (ATCC). Cells were grown in a T-75 flask in DMEM Medium containing 10% fetal bovine serum and penicillin-streptomycin at 37° C. in a humidified, 5% CO2 incubator. Cells (100 µl, 2,000 cells/well) were plated in a 96-well plate and incubated overnight at 37° C. in a humidified, 5% CO2 incubator. Next day, 10 µl/well of compounds were added (quadruplicate wells). After 72 hour incubation with the compound, supernatants were collected for Collagen-1 ELISA assay and cell viability was measured in a luminometer after the addition of 100 IL/well CellTiterGlo reagent (Promega Inc, Madison, WI) as recommended by the manufacturer. Collagen stimulating activity of immodulin peptides in HFF-1 dermal fibroblasts: Peptides were added to cells at 2 uM. COL1 immunoreactivity was measured in the supernatants of cultured cells by ELISA using a rabbit monoclonal anti-COL1 primary antibody (Abcam, Cambridge, MA). Control (buffer) value of immunoreactivity was set to 100.

[4] = Experiment 4D binding to FITC-labelled hyaluronic acid; details: biotinylated peptide 1 ug/well; 1 ug FITC-labelled hyaluronic acid, 90 minutes
Protocol: (§1) Streptavidin-coated 96-well plates (G-Biosciences, St. Louis, MO) were pre-treated with biotinylated peptides [see Example 1 for key] at 1 ug/well, at room temperature for 60 minutes. The plate was washed with PBS buffer and then 1 ug FITC-labelled heparin or hyaluronic acid in 100 uL PBS buffer was added per well (all tests in quadruplicate). Incubation proceeded for 90 minutes at room temperature, followed by two PBS washes. The plate was read in a standard laboratory fluorometer (488/525 nm exitation/[…]) and the counts normalized for immX3 peptide binding=100. Values statistically above background are shown in bold font. **p<0.05 versus immX3AVD.

[5] = Experiment 4D binding to FITC-labelled heparin; details: biotinylated peptide 1 ug/well; 1 ug FITC-labelled heparin, 90 minutes
Protocol: as §1

[6] = Day 1, burn + 1 mg/kg peptide plus equimolar ferric iron, subcutaneous once daily
[7] = Day 8, after LPS, burn + 1 mg/kg peptide days 1-7

Ferric iron binding, fluorescence standardized to immX3AVD control peptide (100), Avg ± SD [1]	Molecule	COL1 immunoreactivity in supernatants, control (buffer) set to 100 [3]	also measured
78.3 ± 6.5**	CC(C)[C@H](NC(=O)[C@H](Cc1ccccc1)NC(=O)[C@H](Cc1c[nH]c2ccccc12)NC(=O)[C@H](CS)NC(=O)[C@H](Cc1ccccc1)NC(=O)CNC(=O)[C@H](CCCNC(=N)N)NC(=O)[C@H](CCCCN)NC(=O)[C@H](CCCNC(=N)N)NC(=O)CNC(=O)[C@H](CCCCN)NC(=O)[C@H](CO)NC(=O)[C@@H]1CCCN1C(=O)[C@H](CCCNC(=N)N)NC(=O)[C@H](CS)NC(=O)[C@H](CCC(N)=O)NC(=O)[C@H](CCCCN)NC(=O)[C@H](CCCCN)NC(=O)[C@H](CCCCN)NC(=O)[C@H](Cc1ccc(O)cc1)NC(=O)[C@H](Cc1ccccc1)NC(=O)CNC(=O)[C@H](CCCCN)NC(=O)[C@@H](N)CCCCN)C(=O)N[C@@H](CO)C(=O)O [immX3FVS] (H-KKGFYKKKQCRPSKGRKRGFCWFVS-OH; N-terminus and C-terminus assumed)		
	Traumatin-3N1A: a longer peptide also containing the immX extension (SEQ ID NO:35) (RGVTEDYLRLETLVQKVVSPYLKGFYKKKQCRPSKGRKRGFCWAVD)		Plasma IL-6 (pg/ml) [2, 6]: 22.5 ± 11*^ pg/ml; Plasma albumin mg/ml (24 hr IR) [2, 6]: 7.6 ± 0.9* mg/ml; Change in body weight (Pct vs Day 1) ([2]; Day 5, burn + 1 mg/kg peptide plus equimolar ferric iron, subcutaneous once daily): −5.3 ± 3.5* Pct; Respiratory distress (Gp. “S” = 100) ([2]; Day 8, 4 hours after LPS, burn + 1 mg/kg peptide days 1-7): 197 ± 39*#; Wet/dry lung weight (corrected for body weight) ([2]; Day 8, after LPS 2.5 mg/kg ip, burn + 1 mg/kg peptide days 1-7): 6.74 ± 0.61*; BAL fluid IL1-beta (pg/ml) [2, 7]: 45.7 ± 24*# pg/ml; Plasma OHDG (ng/ml) [2, 7]: 1.24 ± 0.4* ng/ml; Plasma creatinine (mg/dL) [2, 7]: 0.64 ± 0.2* mg/dL
	(cin)-KKGFYKKKQCRPSKGRKRGFCW ({cinnamic acid}-KKGFYKKKQCRPSKGRKRGFCW; cysteine pairing not given here) [imm3cin, imm3 N-terminally conjugated with cinnamic acid]	106	
108.1 ± 1.5	KKGFYKKKQCRPSKGRKRGFCW[dA]VD (cysteine pairing not given here) [immX3dAVD]		
	(bex)-KKGFYKKKQCRPSKGRKRGFCW (not fully specified (N-terminus); printed as (bex)-KKGFYKKKQCRPSKGRKRGFCW; cysteine pairing not given here) [imm3bex]	102	
	CCCCCCCCCC(=O)N[C@@H](CCCCN)C(=O)N[C@@H](CCCCN)C(=O)NCC(=O)N[C@@H](Cc1ccccc1)C(=O)N[C@@H](Cc1ccc(O)cc1)C(=O)N[C@@H](CCCCN)C(=O)N[C@@H](CCCCN)C(=O)N[C@@H](CCCCN)C(=O)N[C@@H](CCC(N)=O)C(=O)N[C@@H](CS)C(=O)N[C@@H](CCCNC(=N)N)C(=O)N1CCC[C@H]1C(=O)N[C@@H](CO)C(=O)N[C@@H](CCCCN)C(=O)NCC(=O)N[C@@H](CCCNC(=N)N)C(=O)N[C@@H](CCCCN)C(=O)N[C@@H](CCCNC(=N)N)C(=O)NCC(=O)N[C@@H](Cc1ccccc1)C(=O)N[C@@H](CS)C(=O)N[C@@H](Cc1c[nH]c2ccccc12)C(=O)O [imm3dec] (Decanoyl-KKGFYKKKQCRPSKGRKRGFCW-OH; C-terminus assumed)	114	
102.4 ± 9.1	KKGFYKKKQCRPSKGRKRGFCW[dA][dV][dD] (cysteine pairing not given here) [immX3dAdVdD]		Hyaluronate binding, counts normalized for immX3 peptide binding=100 [4]: 104.2 ± 14.7; Heparin binding, counts normalized for immX3 peptide binding=100 [5]: 55.5 ± 5.7**
1.2 ± 1.3**	RNGNFHPKQCHPALDGQRGKCWAVD [immX4AVD]		Hyaluronate binding, counts normalized for immX3 peptide binding=100 [4]: 61.1 ± 34.1; Heparin binding, counts normalized for immX3 peptide binding=100 [5]: 7.3 ± 17.1
	AFNSYELGSKGFYKKKQCRPSKGRKRGFCW [imm3K9]	155**	
88.1 ± 14.2	RKGFYKRKQCKPSRGRKRGICWAVD [immX5AVD]		Hyaluronate binding, counts normalized for immX3 peptide binding=100 [4]: 113.9 ± 15.7; Heparin binding, counts normalized for immX3 peptide binding=100 [5]: 68.7 ± 26.2
108.2 ± 6.6	SLNPEWNETKGFYKKKQCRPSKGRKRGFCW[dA][dV][dD] (cysteine pairing not given here) [immX3K1dAdVdD]		Hyaluronate binding, counts normalized for immX3 peptide binding=100 [4]: 101.9 ± 16.4; Heparin binding, counts normalized for immX3 peptide binding=100 [5]: 56.0 ± 7.3**
133.6±	KKGFYKKKQCRPSKGRKRGFCW(dS)(dV)(dD) (KKGFYKKKQCRPSKGRKRGFCW[dS][dV][dD]; cysteine pairing not given here) [immX3dSdVdD]		
	AFNSYELGSKGFYKKKQCRPSKGRKRGFCWAVDKY [imm3K9c]	158**	
	(rhn)-KKGFYKKKQCRPSKGRKRGFCW (rhein-KKGFYKKKQCRPSKGRKRGFCW; cysteine pairing not given here) [imm3rhn, imm3 N-terminally conjugated with rhein]	68**	
	FNSYELGSLKKGFYKKKQCRPSKGRKRGFCW [imm3K8]	98	
	(isf)-KKGFYKKKQCRPSKGRKRGFCW ({isoferulic acid}-KKGFYKKKQCRPSKGRKRGFCW; cysteine pairing not given here) [imm3isf, imm3 N-terminally conjugated with isoferulic acid]	131*	
	AFNSYELGSKKGFYKKKQCRPSKGRKRGFCW [imm3K9.1]	156**	
	CCCC(CCC)C(=O)N[C@@H](CCCCN)C(=O)N[C@@H](CCCCN)C(=O)NCC(=O)N[C@@H](Cc1ccccc1)C(=O)N[C@@H](Cc1ccc(O)cc1)C(=O)N[C@@H](CCCCN)C(=O)N[C@@H](CCCCN)C(=O)N[C@@H](CCCCN)C(=O)N[C@@H](CCC(N)=O)C(=O)N[C@@H](CS)C(=O)N[C@@H](CCCNC(=N)N)C(=O)N1CCC[C@H]1C(=O)N[C@@H](CO)C(=O)N[C@@H](CCCCN)C(=O)NCC(=O)N[C@@H](CCCNC(=N)N)C(=O)N[C@@H](CCCCN)C(=O)N[C@@H](CCCNC(=N)N)C(=O)NCC(=O)N[C@@H](Cc1ccccc1)C(=O)N[C@@H](CS)C(=O)N[C@@H](Cc1c[nH]c2ccccc12)C(=O)O [imm3vlp] ({Pentanoyl(2-Pr)}-KKGFYKKKQCRPSKGRKRGFCW-OH; C-terminus assumed)	157**	
